Measured values taken from paper PMC6199744, “Development of Chemical Proteomics for the Folateome and Analysis of the Kinetoplastid Folateome” (ACS Infectious Diseases, 2018).
Where two headings read alike, the source gives them in different places.

Assays:
Type in all cases: binding
[1] = target: T1, HeLa cell extract proteins (Homo sapiens, UniProt P45954)
T1 construct: endogenous in cells; host or cells: HeLa cell extract

[2] = target: T2, HeLa cell extract proteins (Homo sapiens, UniProt P52565)
T2 construct: endogenous in cells; host or cells: HeLa cell extract
T2 sequence (P52565 1-204): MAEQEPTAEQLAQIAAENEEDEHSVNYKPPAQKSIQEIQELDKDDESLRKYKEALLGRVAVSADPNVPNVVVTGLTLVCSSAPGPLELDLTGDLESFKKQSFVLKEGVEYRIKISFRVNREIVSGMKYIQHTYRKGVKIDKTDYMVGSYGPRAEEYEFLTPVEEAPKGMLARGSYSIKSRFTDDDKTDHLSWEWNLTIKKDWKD

[3] = target: T3, HeLa cell extract proteins (Homo sapiens, UniProt O43615); settings: protein TIMM44; HeLa
T3 construct: endogenous in cells; host or cells: HeLa cell extract
T3 sequence (O43615 1-452): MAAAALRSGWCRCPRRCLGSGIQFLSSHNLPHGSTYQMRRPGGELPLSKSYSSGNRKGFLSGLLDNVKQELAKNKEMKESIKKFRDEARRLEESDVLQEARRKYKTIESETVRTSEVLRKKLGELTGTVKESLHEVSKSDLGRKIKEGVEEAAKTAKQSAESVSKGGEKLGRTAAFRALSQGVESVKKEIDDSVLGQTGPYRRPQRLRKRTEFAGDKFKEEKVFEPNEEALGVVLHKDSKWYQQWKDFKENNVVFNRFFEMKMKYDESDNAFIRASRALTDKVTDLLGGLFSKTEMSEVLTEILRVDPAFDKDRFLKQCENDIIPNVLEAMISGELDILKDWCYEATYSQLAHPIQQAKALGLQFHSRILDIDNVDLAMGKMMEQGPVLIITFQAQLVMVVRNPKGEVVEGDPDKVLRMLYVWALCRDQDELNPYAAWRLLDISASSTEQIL

[4] = target: T4, HeLa cell extract proteins (Homo sapiens, UniProt O95433); settings: protein AHSA1; HeLa
T4 construct: endogenous in cells; host or cells: HeLa cell extract

[5] = target: T5, HeLa cell extract proteins (Homo sapiens, UniProt P09669); settings: captured protein COX6C; HeLa
T5 construct: endogenous in cells; host or cells: HeLa cell extract

[6] = target: T6, HeLa cell extract proteins (Homo sapiens, UniProt P14314); settings: HeLa; protein PRKCSH (CDNA FLJ59211, HIGHLY SIMILAR TO GLUCOSIDASE 2 SUBUNIT BETA.)
T6 construct: endogenous in cells; host or cells: HeLa cell extract
T6 sequence (P14314 15-528): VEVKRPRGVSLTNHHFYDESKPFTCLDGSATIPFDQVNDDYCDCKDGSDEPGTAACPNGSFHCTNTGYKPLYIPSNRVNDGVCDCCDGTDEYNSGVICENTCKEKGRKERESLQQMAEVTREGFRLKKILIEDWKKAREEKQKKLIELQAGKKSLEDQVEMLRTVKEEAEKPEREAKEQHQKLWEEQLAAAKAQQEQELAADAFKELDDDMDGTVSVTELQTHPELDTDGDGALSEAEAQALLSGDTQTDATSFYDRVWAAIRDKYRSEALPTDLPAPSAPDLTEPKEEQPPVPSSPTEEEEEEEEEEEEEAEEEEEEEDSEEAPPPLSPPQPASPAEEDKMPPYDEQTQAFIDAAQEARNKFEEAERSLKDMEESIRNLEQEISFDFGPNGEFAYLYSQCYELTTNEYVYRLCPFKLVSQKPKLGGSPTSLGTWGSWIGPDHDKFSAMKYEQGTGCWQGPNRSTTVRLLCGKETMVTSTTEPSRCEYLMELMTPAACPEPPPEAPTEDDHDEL

[7] = target: T7, HeLa cell extract proteins (Homo sapiens, UniProt P26368); settings: protein U2AF2; HeLa
T7 construct: endogenous in cells; host or cells: HeLa cell extract

[8] = target: T8, HeLa cell extract proteins (Homo sapiens, UniProt P68371); settings: captured protein TUBB2C; HeLa
T8 construct: endogenous in cells; host or cells: HeLa cell extract

[9] = target: T9, HeLa cell extract proteins (Homo sapiens, UniProt Q08945); settings: protein SSRP1; HeLa
T9 construct: endogenous in cells; host or cells: HeLa cell extract

[10] = target: T10, HeLa cell extract proteins (Homo sapiens, UniProt Q5BJD5); settings: captured protein TMEM41B; HeLa
T10 construct: endogenous in cells; host or cells: HeLa cell extract
T10 sequence (Q5BJD5 1-291): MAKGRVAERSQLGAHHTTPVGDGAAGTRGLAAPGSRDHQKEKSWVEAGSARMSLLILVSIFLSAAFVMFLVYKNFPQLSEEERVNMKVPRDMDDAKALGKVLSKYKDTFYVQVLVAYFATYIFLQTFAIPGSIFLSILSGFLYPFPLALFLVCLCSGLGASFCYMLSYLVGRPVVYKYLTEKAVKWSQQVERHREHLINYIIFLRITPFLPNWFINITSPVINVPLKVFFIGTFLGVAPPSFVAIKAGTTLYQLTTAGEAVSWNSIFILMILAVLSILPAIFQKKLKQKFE

T4 sequence (O95433 whole entry): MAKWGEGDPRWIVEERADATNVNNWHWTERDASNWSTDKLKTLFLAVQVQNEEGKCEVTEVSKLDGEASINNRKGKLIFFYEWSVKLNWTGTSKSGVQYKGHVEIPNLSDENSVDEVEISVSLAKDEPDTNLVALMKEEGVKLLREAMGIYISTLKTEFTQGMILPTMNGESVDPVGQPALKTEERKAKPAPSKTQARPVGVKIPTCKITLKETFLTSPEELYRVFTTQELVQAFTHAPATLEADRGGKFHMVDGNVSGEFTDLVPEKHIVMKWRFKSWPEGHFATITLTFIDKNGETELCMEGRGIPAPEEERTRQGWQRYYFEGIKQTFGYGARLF
T7 sequence (P26368 whole entry): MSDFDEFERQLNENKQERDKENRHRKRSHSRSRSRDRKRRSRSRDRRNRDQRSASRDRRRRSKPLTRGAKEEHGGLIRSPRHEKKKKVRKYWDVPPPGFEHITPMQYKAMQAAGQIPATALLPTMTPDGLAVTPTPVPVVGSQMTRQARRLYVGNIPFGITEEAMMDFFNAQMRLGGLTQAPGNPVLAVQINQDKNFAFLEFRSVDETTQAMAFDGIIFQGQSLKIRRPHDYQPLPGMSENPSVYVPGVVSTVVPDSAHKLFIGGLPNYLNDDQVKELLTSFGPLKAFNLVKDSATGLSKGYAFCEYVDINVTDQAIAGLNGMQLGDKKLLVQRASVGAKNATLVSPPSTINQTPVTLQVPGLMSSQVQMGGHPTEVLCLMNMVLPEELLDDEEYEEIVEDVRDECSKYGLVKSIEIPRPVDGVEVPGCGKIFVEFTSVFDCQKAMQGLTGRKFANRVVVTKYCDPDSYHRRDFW
T9 sequence (Q08945 whole entry): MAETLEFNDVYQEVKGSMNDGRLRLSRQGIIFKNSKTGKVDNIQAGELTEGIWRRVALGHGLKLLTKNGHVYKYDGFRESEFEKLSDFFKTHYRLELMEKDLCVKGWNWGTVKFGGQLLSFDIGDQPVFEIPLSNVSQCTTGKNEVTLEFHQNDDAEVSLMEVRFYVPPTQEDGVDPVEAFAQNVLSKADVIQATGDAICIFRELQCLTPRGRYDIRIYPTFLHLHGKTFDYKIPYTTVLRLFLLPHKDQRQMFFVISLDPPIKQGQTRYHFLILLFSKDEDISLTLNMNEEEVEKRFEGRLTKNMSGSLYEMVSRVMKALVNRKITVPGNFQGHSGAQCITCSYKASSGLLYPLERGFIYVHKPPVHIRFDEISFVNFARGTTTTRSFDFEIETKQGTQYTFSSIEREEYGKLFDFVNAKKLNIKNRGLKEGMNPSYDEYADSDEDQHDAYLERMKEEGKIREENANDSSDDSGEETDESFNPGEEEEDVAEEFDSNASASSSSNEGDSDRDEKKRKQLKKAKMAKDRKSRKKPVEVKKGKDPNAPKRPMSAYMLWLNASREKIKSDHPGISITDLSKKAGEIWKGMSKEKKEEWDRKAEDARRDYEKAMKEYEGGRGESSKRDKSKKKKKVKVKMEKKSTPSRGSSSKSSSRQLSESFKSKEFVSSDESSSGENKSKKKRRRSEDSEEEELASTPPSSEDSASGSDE
T8 sequence (P68371 whole entry): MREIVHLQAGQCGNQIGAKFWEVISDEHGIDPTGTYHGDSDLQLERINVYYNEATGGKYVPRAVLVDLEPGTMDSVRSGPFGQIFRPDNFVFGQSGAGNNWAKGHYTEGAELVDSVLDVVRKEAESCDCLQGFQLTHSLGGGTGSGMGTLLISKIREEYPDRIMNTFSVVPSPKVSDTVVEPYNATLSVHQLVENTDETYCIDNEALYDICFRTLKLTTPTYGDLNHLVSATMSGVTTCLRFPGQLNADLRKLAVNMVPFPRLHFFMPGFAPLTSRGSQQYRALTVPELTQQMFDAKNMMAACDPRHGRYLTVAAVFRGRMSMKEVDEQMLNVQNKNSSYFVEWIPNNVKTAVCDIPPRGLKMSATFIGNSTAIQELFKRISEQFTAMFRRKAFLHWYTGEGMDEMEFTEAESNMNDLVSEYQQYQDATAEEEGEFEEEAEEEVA
T5 sequence (P09669 whole entry): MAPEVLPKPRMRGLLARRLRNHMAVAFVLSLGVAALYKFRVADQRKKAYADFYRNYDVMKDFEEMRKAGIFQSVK

Q: Nc1nc2c(c(=O)[nH]1)N(C=O)C(CNc1ccc(C(=O)N[C@@H](CCC(=O)O)C(=O)O)cc1)CN2 (some centres unmarked) [LEU, leucovorin] was tested. Which “fold changes relative to vehicle control” value ([1]; HeLa, protein ACADSB) did it give?
A: 0.9

Q: And the “fold changes relative to vehicle control” value ([2]; HeLa, protein ARHGDIA)?
A: 1.03

Q: How did the “fold changes relative to vehicle control” value [1] turn out when Nc1nc2[nH]cc(CCc3ccc(C(=O)N[C@@H](CCC(=O)O)C(=O)O)cc3)c2c(=O)[nH]1 [PTX, pemetrexed] was run?
A: 0.93

Q: What about the “fold changes relative to vehicle control” value [2] of the same compound?
A: 1.08

Q: Which results are given for CCCCCCOc1ccc(Cc2cnc(N)nc2N)cc1 [compound 1]?
A: fold changes relative to vehicle control [3]: 1.06; fold changes relative to vehicle control [4]: 1.17; fold changes relative to vehicle control [5]: 0.88; fold changes relative to vehicle control [6]: 1.76 fold; fold changes relative to vehicle control [7]: 1.12; fold changes relative to vehicle control [8]: 1.03; fold changes relative to vehicle control [9]: 0.93; fold changes relative to vehicle control [10]: 1.09

Q: Which “fold changes relative to vehicle control” value [3] does the source give for CCCCCCOc1cccc(Cc2cnc(N)nc2N)c1 [compound 2] here?
A: 1.29

Q: And the “fold changes relative to vehicle control” value [4]?
A: 1.63

Q: And the “fold changes relative to vehicle control” value [5]?
A: 0.94

Q: And the “fold changes relative to vehicle control” value [6]?
A: 2.8 fold

Q: What about the “fold changes relative to vehicle control” value [7] of the same compound?
A: 1.36

Q: What about the “fold changes relative to vehicle control” value [8] of the same compound?
A: 0.94

Q: And the “fold changes relative to vehicle control” value [9]?
A: 1.44

Q: And the “fold changes relative to vehicle control” value [10]?
A: 1.09

Q: With Nc1nc2cccc(-c3ccccc3)c2n1Cc1ccc(Cl)c(Cl)c1 [compound 3] as the compound, how does the “fold changes relative to vehicle control” value [3] read?
A: 1.03

Q: What about the “fold changes relative to vehicle control” value [4] of the same compound?
A: 1.24

Q: What about the “fold changes relative to vehicle control” value [5] of the same compound?
A: 1.07

Q: What about the “fold changes relative to vehicle control” value [6] of the same compound?
A: 1.26 fold

Q: What about the “fold changes relative to vehicle control” value [7] of the same compound?
A: 0.93

Q: What about the “fold changes relative to vehicle control” value [8] of the same compound?
A: 1.02

Q: What about the “fold changes relative to vehicle control” value [9] of the same compound?
A: 0.95

Q: What about the “fold changes relative to vehicle control” value [10] of the same compound?
A: 1.08

Q: Which results are given for NCCOCCOCC(=O)Nc1nc2ncc(CNc3ccc(C(=O)NC(CCC(=O)O)C(=O)O)cc3)nc2c(=O)[nH]1 (centres unmarked) [compound 6]?
A: fold changes relative to vehicle control ([1]; HeLa, protein ACADSB): 0.96; fold changes relative to vehicle control ([2]; HeLa, protein ARHGDIA): 1.18

Q: How did the “fold changes relative to vehicle control” value ([1]; HeLa, protein ACADSB) turn out when NCCCNc1ccc(C(=O)NC(CCC(=O)O)C(=O)O)cc1 (centres unmarked) [compound 7] was run?
A: 1.02

Q: And the “fold changes relative to vehicle control” value ([2]; HeLa, protein ARHGDIA)?
A: 1.08
